# Experimental data published in ChEMBL document CHEMBL1240295, “Specificity and mechanism of action of some commonly used protein kinase inhibitors” (Biochem J, 2000).
# Assays:
# [1] = target: Myosin light chain kinase 2, skeletal/cardiac muscle (Homo sapiens) (UniProt Q9H1R3); assay: Inhibition of His-tagged human SkMLCK expressed in Escherichia coli at 1 uM
# [2] = target: Myosin light chain kinase, smooth muscle (Gallus gallus) (UniProt P11799); assay: Inhibition of chicken SmMLCK expressed in Escherichia coli at 1 uM
# [3] = target: Myosin light chain kinase, smooth muscle (Gallus gallus, UniProt P11799); assay: Inhibition of chicken SmMLCK expressed in Escherichia coli
# [4] = target: Phosphatidylinositol 4,5-bisphosphate 3-kinase catalytic subunit alpha isoform (Bos taurus) (UniProt P32871); conditions: Sf9, 1 uM
# Chain of Phosphatidylinositol 4,5-bisphosphate 3-kinase catalytic subunit alpha isoform (Bos taurus) (P32871 whole entry, canonical isoform): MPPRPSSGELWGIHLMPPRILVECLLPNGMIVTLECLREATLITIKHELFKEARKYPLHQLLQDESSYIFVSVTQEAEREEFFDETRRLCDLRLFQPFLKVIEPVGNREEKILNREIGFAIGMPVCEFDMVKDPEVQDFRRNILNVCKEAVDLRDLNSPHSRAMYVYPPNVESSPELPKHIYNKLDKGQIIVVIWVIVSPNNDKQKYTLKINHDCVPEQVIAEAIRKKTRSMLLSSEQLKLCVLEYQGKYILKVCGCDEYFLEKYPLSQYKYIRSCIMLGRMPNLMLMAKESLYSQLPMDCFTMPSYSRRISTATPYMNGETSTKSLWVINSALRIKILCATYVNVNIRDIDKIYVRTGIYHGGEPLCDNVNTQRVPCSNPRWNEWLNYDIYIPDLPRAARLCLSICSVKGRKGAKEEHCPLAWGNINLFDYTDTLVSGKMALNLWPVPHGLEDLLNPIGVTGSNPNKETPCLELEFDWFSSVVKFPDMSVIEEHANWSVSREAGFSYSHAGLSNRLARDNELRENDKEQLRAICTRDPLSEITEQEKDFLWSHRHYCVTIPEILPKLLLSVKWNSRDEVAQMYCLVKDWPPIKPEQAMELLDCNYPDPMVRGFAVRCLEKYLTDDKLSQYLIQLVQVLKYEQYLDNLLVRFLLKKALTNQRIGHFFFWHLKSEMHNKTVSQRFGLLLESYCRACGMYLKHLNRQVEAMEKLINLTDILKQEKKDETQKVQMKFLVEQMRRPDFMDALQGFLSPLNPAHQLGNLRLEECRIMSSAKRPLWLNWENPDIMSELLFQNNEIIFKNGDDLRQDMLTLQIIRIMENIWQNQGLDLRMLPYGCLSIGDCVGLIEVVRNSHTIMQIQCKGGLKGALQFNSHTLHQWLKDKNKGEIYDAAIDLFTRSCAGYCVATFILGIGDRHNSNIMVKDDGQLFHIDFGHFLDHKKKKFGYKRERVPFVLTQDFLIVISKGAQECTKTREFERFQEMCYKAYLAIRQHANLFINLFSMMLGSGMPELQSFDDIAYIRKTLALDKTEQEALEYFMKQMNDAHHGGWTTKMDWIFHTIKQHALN
# Description: Inhibition of His-tagged bovine PI3K expressed in Sf9 cells at 1 uM
# [5] = target: Ribosomal protein S6 kinase beta-1 (Homo sapiens, UniProt P23443); assay: Inhibition of His-tagged human S6K1 expressed in Escherichia coli
# [6] = target: Ribosomal protein S6 kinase alpha-5 (Homo sapiens, UniProt O75582); assay: Inhibition of His-tagged human MSK1 expressed in Sf9 cells
# Chain of Ribosomal protein S6 kinase alpha-5 (O75582 whole entry): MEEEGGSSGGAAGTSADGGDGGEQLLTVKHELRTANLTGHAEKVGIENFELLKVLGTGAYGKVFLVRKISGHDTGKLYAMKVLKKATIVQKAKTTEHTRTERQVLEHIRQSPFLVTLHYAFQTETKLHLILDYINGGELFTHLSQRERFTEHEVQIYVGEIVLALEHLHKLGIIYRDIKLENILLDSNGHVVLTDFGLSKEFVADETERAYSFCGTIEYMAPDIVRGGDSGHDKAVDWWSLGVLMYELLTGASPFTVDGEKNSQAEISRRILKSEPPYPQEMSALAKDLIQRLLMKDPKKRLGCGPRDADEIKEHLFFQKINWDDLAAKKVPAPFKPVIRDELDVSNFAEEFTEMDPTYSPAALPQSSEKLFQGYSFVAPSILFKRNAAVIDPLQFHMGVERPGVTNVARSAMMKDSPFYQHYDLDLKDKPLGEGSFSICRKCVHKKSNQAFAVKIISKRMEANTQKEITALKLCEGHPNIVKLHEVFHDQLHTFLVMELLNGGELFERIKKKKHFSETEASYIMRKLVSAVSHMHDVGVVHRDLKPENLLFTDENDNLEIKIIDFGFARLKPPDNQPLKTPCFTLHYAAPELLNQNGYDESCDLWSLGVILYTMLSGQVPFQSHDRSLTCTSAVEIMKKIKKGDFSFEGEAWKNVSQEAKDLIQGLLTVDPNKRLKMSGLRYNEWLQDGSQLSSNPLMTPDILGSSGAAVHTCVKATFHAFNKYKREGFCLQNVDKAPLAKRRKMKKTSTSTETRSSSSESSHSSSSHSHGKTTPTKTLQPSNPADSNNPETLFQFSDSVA
# [7] = Inhibition of MAPKAPK1b from rabbit skeletal muscle; format: tissue-based, Oryctolagus cuniculus, Muscle tissue
# [8] = target: Glycogen synthase kinase-3 beta (Homo sapiens, UniProt P49841); assay: Inhibition of His-tagged human GSK3b expressed in Sf21 cells
# Chain of Glycogen synthase kinase-3 beta (P49841 whole entry): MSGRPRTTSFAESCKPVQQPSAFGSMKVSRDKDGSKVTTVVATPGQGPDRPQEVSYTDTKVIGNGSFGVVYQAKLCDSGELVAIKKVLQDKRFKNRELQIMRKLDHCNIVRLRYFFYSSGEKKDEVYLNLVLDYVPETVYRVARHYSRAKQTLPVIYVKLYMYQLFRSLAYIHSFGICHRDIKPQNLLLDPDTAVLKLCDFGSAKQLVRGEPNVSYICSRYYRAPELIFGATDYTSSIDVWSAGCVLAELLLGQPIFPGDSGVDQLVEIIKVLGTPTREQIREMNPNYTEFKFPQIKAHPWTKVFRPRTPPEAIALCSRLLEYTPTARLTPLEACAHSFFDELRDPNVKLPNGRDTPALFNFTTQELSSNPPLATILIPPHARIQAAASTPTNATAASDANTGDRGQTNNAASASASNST
# [9] = target: T1, Protein kinase C alpha type (Homo sapiens, UniProt P17252); assay: Inhibition of His-tagged human PKCalpha expressed in Escherichia coli
# [10] = target: Phosphatidylinositol 4,5-bisphosphate 3-kinase catalytic subunit alpha isoform (Bos taurus) (UniProt P32871); assay: Inhibition of His-tagged bovine PI3K expressed in Sf9 cells at 20 uM
# [11] = species on record: Rattus norvegicus; assay: Inhibition of rat liver AMPK at 20 uM; values are per cent of control
# [12] = species on record: Oryctolagus cuniculus; assay: Inhibition of PHK from rabbit skeletal muscle at 20 uM; values are per cent of control; conditions: Muscle tissue
# [13] = species on record: Oryctolagus cuniculus; assay: Inhibition of MAPKAPK1b from rabbit skeletal muscle at 20 uM; values are per cent of control; conditions: Muscle tissue
# [14] = target: T2, MAP kinase-activated protein kinase 5 (Homo sapiens) (UniProt Q8IW41); assay: Inhibition of His-tagged human PRAK expressed in Sf9 cells at 20 uM; values are per cent of control
# T2 sequence (whole entry): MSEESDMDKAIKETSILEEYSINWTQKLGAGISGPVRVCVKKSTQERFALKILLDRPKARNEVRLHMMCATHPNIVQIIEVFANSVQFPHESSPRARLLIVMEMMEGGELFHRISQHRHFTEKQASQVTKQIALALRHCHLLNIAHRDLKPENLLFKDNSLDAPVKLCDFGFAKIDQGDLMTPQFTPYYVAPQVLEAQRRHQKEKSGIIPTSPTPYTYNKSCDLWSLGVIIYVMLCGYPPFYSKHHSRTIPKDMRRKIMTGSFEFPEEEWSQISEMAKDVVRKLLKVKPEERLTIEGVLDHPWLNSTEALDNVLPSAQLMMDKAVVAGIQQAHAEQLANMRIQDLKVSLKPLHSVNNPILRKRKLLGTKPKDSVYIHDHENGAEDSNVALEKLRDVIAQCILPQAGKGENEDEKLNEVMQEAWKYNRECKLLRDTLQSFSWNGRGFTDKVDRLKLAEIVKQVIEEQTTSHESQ
# [15] = target: T3, Serine/threonine-protein kinase Chk1 (Homo sapiens) (UniProt O14757); assay: Inhibition of His-tagged human CHK1 expressed in Escherichia coli at 20 uM; values are per cent of control
# T3 sequence (whole entry): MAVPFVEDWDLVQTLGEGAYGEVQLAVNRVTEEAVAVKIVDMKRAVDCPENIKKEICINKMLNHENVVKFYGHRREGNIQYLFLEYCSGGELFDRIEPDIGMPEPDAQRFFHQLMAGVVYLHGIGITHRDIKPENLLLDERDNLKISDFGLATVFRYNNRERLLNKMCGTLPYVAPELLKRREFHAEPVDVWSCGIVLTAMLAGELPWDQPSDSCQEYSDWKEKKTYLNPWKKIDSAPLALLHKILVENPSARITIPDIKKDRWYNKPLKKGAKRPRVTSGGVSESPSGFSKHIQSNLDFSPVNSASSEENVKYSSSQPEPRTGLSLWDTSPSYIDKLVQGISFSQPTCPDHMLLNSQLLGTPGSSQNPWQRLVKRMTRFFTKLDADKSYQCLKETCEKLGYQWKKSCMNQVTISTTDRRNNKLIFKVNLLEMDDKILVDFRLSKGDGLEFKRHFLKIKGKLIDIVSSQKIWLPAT
# [16] = target: T1, Protein kinase C alpha type; assay: Inhibition of His-tagged human PKCalpha expressed in Escherichia coli at 20 uM; values are per cent of control
# [17] = target: Mitogen-activated protein kinase 11 (Homo sapiens) (UniProt Q15759); assay: Inhibition of His-tagged human SAPK2b/p38b2 expressed in Escherichia coli at 20 uM; values are per cent of control
# Chain of Mitogen-activated protein kinase 11 (Homo sapiens) (Q15759 whole entry): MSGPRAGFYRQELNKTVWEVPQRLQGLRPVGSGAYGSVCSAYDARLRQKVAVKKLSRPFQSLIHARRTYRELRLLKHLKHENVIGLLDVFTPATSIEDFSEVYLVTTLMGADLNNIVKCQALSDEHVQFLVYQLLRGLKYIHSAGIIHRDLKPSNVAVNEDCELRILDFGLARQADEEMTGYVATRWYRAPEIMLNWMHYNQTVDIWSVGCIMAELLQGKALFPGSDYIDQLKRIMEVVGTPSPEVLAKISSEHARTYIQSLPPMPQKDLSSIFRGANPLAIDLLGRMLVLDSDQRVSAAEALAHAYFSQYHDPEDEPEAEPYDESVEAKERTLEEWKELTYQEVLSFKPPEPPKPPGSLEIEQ
# [18] = target: T4, Mitogen-activated protein kinase 12 (Homo sapiens) (UniProt P53778); assay: Inhibition of His-tagged human SAPK3/p38gamma expressed in Escherichia coli at 20 uM; values are per cent of control
# T4 sequence (whole entry): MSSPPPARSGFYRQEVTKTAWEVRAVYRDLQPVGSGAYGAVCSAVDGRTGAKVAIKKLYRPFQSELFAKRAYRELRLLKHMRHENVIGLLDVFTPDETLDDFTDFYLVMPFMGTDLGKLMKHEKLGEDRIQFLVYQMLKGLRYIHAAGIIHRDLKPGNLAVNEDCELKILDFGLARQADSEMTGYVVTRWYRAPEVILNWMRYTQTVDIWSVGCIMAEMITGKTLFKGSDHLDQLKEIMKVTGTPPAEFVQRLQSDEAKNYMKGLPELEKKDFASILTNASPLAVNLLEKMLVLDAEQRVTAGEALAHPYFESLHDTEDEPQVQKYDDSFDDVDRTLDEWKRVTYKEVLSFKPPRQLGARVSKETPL
# [19] = target: MAP kinase-activated protein kinase 5 (Homo sapiens, UniProt Q8IW41); format: cell-based, Sf9
# [20] = target: MAP kinase-activated protein kinase 2 (Homo sapiens, UniProt P49137); assay: Inhibition of His-tagged human MAPKAPK2 expressed in Escherichia coli […]
# Chain of MAP kinase-activated protein kinase 2 (P49137 whole entry): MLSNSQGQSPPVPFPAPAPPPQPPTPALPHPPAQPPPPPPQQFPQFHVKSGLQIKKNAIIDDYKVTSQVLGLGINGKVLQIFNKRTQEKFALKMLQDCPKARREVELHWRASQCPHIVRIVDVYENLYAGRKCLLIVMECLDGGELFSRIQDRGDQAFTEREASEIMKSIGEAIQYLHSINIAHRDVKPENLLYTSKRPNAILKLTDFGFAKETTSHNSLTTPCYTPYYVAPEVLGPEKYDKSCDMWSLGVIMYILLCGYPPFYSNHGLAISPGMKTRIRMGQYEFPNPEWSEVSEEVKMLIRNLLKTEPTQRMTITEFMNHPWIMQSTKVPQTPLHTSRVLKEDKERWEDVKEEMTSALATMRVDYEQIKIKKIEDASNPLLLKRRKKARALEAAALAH
# [21] = target: Protein kinase C delta type (Homo sapiens) (UniProt Q05655); conditions: 20 uM
# Chain of Protein kinase C delta type (Homo sapiens) (Q05655 whole entry, looked up): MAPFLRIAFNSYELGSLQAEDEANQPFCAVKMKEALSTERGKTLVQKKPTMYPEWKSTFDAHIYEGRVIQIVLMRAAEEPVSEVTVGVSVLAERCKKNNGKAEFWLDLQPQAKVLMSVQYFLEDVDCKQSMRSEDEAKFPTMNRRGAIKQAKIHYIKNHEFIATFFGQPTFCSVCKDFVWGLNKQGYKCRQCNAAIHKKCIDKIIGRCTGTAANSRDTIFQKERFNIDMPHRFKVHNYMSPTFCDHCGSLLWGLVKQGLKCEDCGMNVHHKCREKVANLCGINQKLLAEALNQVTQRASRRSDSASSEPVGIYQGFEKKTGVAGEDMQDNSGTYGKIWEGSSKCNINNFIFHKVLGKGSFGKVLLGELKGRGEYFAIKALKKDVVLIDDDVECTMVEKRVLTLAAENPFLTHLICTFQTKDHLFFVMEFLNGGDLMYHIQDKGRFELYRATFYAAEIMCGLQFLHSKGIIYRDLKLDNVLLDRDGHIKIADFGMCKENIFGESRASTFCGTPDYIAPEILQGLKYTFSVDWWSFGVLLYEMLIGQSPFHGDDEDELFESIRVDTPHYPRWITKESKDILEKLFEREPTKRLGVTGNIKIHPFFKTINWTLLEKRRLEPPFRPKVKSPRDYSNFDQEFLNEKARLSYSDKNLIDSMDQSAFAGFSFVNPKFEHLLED
# Description: Inhibition of His-tagged human PKCdelta expressed in Escherichia coli at 20 uM
# Chain of Myosin light chain kinase 2, skeletal/cardiac muscle (Homo sapiens) (Q9H1R3 whole entry): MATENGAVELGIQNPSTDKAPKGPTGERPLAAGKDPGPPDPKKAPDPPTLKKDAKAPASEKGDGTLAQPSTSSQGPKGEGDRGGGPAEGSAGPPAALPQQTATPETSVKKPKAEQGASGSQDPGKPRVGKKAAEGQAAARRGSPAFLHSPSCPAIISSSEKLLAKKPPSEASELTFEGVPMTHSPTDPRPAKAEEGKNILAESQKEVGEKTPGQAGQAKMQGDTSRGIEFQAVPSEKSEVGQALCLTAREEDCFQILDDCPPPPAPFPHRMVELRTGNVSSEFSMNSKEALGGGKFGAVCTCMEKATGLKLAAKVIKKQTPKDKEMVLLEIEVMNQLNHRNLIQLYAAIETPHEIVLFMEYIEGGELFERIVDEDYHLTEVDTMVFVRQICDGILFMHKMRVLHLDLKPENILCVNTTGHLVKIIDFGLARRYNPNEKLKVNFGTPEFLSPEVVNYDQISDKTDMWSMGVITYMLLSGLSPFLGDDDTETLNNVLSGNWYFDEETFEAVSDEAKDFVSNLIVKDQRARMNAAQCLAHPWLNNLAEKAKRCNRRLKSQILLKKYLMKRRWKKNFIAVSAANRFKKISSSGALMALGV
SMILES,residual activity [11] [%],"level, % of control [12] [%]","level, % of control [13] [%]",residual activity [14] [%],residual activity [15] [%],residual activity [16] [%],residual activity [17] [%],residual activity [18] [%],other results
COC[C@H]1OC(=O)c2coc3c2[C@@]1(C)C1=C(C3=O)[C@@H]2CCC(=O)[C@@]2(C)C[C@H]1OC(C)=O [WORTMANNIN],,,,,,,,,inhibition [1]: 4%; inhibition [2]: 4%; IC50 [3]: 260 nM; inhibition [4]: 0%
Cn1cc(C2=C(c3cn(CCCSC(=N)N)c4ccccc34)C(=O)NC2=O)c2ccccc21 [BISINDOLYLMALEIMIDE IX],,,,,,,,,IC50 [5]: 15 nM; IC50 [6]: 8 nM; IC50 [7]: 3 nM; IC50 [8]: 38 nM; IC50 [9]: 33 nM
O=c1c(O)c(-c2ccc(O)c(O)c2)oc2cc(O)cc(O)c12,16,32,20,51,56,70,150,132,inhibition [10]: 18%
CC(=O)c1c(O)c(C)c(O)c(Cc2c(O)c3c(c(C(=O)/C=C/c4ccccc4)c2O)OC(C)(C)C=C3)c1O [ROTTLERIN],98,63,79,6,107,95,127,146,IC50 [19]: 1900 nM; IC50 [20]: 5400 nM; inhibition [21]: 101%
